{
  "source": "paper PMC7260179",
  "about": "“Structural insight into the electron transfer pathway of a self-sufficient P450 monooxygenase” (Nature Communications, 2020)",
  "key": {"[1]": {"molecular_target": "T1, CYP116B46 (Tepidiphilus thermophilus, UniProt A0A0K6ITW2)", "T1 construct": "gene Ga0061068_103196; full-length, synthetic gene in pET46 Ek/LIC (Ni-NTA purified), expressed in E. coli BL21(DE3); residues 27-779 modelled in crystal", "T1 sequence (A0A0K6ITW2 entry or part of it)": "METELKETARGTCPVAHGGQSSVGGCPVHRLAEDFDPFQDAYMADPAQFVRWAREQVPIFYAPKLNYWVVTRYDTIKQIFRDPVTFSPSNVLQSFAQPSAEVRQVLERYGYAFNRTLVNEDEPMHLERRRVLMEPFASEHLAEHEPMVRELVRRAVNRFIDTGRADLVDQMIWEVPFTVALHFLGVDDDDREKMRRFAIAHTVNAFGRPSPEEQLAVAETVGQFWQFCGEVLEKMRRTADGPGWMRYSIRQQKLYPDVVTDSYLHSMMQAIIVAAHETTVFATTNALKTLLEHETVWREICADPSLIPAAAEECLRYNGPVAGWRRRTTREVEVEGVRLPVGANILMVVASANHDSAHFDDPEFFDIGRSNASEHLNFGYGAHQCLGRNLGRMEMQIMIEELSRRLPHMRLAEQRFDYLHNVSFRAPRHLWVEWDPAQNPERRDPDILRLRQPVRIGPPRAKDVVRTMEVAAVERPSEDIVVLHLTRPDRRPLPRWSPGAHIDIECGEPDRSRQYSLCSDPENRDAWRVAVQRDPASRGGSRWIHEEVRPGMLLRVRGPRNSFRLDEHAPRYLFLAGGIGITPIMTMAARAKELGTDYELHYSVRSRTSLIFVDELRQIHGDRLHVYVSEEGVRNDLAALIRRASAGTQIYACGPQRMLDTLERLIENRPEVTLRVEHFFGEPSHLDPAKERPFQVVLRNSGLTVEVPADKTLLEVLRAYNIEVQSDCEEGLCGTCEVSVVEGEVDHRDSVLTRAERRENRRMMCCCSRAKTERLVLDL", "assay": "X-ray crystal structure", "assay_type": "binding", "settings": "crystals at pH 7.0"}, "[2]": {"molecular_target": "T1, CYP116B46", "assay": "hydroxylation assay, GC-FID of silylated products", "assay_type": "biochemical", "settings": "0.4 mM substrate, 10 uM enzyme, 1 mM NADP+ with glucose dehydrogenase/glucose recycling, pH 8.0, 30 C, 5 h"}},
  "data": [
    {"smiles": "Cc1cc2nc3c(=O)[nH]c(=O)nc-3n(C[C@H](O)[C@H](O)[C@H](O)COP(=O)(O)O)c2cc1C", "note": "[FMN]", "values": [
      {"measurement": "X-ray crystal structure, 2.13 A", "setting": "[1]; reductase domain, co-purified with the recombinant protein", "result": "The FMN bound in the reductase domain was co-purified with the recombinant protein"}
    ]},
    {"smiles": "CCCCCCCCCC(=O)O", "note": "[decanoic acid]", "values": [
      {"measurement": "hydroxylation assay, GC-FID of silylated products", "setting": "[2]", "result": "The enzyme activity of CYP116B46 was estimated by decanoic acid hydroxylation assay"}
    ]},
    {"smiles": "[S]1[Fe][S][Fe]1", "note": "[[2Fe-2S] cluster]", "values": [
      {"measurement": "X-ray crystal structure, 2.13 A", "setting": "[1]; ferredoxin domain", "result": "binding sites for each of the prosthetic groups, heme, FMN and binuclear Fe-S cluster"}
    ]}
  ]
}
